This is an account of results in patent US20180303807A1, “ANDROGEN RECEPTOR LIGANDS” (DUKE UNIVERSITY, priority 2015, published 2018).

In the first assay the target is T1, AR (Homo sapiens, UniProt P10275).
T1 construct: expressed in transfected cells; host or cells: CV1 cells
T1 sequence (P10275 1-920): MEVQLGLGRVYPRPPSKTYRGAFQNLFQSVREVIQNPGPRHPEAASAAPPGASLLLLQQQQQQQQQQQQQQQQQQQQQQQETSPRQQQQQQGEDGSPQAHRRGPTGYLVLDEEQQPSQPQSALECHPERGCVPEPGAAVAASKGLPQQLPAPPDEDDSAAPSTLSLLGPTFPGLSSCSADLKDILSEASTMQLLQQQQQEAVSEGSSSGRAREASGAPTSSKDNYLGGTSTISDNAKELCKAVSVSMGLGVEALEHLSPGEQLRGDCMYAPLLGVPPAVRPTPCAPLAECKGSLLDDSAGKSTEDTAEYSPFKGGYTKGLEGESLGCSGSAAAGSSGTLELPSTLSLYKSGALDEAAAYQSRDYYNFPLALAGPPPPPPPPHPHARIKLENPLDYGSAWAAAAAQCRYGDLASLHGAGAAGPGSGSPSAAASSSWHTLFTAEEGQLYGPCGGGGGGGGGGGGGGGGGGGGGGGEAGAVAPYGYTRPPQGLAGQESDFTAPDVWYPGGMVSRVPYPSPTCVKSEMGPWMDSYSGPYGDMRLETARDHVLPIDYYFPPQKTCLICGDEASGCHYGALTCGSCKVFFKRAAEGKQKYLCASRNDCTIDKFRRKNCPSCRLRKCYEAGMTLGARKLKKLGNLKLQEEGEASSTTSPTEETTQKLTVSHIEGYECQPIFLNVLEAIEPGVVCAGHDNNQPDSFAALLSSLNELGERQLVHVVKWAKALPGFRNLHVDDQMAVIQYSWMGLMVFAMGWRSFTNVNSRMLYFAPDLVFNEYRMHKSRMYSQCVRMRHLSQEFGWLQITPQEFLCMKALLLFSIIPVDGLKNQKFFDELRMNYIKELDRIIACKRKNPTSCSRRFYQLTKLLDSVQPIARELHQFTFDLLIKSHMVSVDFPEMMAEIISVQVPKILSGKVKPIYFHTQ
The assay can be described thus: Reporter gene assay, AR transcriptional (MMTV-Luc) in CV1 cells. It counts as cell-based. The conditions noted are these: pcDNA-AR + MMTV-Luc, 0.1 nM R1881 plus test compound, 24 hrs. The procedure: Reporter Gene Assay (IC50 determination, Table 2, B1-B3). CV1 cells were seeded into 96-well cell culture plates and transfected with Lipofectin. For AR transcriptional assays, the DNA mixture consisted of pcDNA-AR, MMTV-Luc (androgen responsive reporter gene), and Renilla-Luc (for assessing transfection efficiency and toxicity). Following overnight incubation, cells were induced with hormone (0.1 nM R1881 (synthetic AR agonist) plus increasing concentrations of test compound) for 24 hrs. Cells were lysed and luciferase activity was quantified using Dual Luciferase Reagent (DLR). IC50 determination was assessed using GraphPad Prism software.
A general note: In a reporter assay the amount or activity of a reporter protein is the signal.
With `CC1(C)CC(=O)C2=C(C1)Nc1ccc3ncccc3c1C2c1ccc(S(C)(=O)=O)cc1` (stereo not shown) [Compound A36], the “B1 = AR transcriptional IC50 (μM) in CV1 cells” value is “Inactive”.

With `CC1(C)CC(=O)C2=C(C1)Nc1c(ccc3ncccc13)C2c1ccc([N+](=O)[O-])cc1` (stereo not shown) [Compound A44], the “B1 = AR transcriptional IC50 (μM) in CV1 cells” value is reported as “Inactive”.

The assay is the same for the next values; noted with them: pcDNA-AR + MMTV-Luc, 0.1 nM R1881 plus test compound, 24 hrs, read-out: B1 = AR transcriptional IC50 (μM) in CV1 cells.
On to `CC1(C)CC(=O)C2=C(C1)Nc1ccc3cn[nH]c3c1C2c1ccc(Br)s1` (stereo not shown) [Compound A112], for which the IC50 (in general, the concentration at which inhibition is half-maximal) is 3.2 µM.

Consider `CC1(C)CC(=O)C2=C(C1)Nc1ccc3ncccc3c1C2c1ccc2nonc2c1` (stereo not shown) [Compound A30], for which the half-inhibitory concentration (IC50) came to 1.8 µM.

For the molecule `CC1(C)CC(=O)C2=C(C1)Nc1ccc3ncccc3c1C2c1ccc(C(=O)O)cc1` (stereo not shown) [Compound A37], the half-inhibitory concentration (IC50) worked out at 38 µM.

Take `C[n+]1cccc2c3c(ccc21)NC1=C(C(=O)CC(C)(C)C1)C3c1ccc(F)c(F)c1` (racemic) [Compound A87, (±)-12-(3,4-difluorophenyl)-4,9,9-trimethyl-11-oxo-7,8,9,10,11,12-hexahydrobenzo[b][4,7]phenanthrolin-4-ium iodide]: the IC50 stood at 1.3 µM.

On to `CC1(C)CC(=O)C2=C(C1)Nc1ccc3cn[nH]c3c1C2c1ccc(Cl)s1` (stereo not shown) [Compound A108], for which the IC50 came to 1.2 µM.

In the case of `CC1(C)CC(=O)C2=C(C1)Nc1ccc3ncccc3c1C2c1ccc(C#N)cn1` (stereo not shown) [Compound A56], the IC50 is 1.2 µM.

On to `CC1(C)CC(=O)C2=C(C1)Oc1ccc3ccccc3c1C2c1ccc(F)c(F)c1` (racemic) [Compound A89, (±)-12-(3,4-difluorophenyl)-9,9-dimethyl-9,10-dihydro-8H-benzo[a]xanthen-11(12H)-one], for which the IC50 was found to be 0.4 µM.

Consider `CC1(C)CC(=S)C2=C(C1)Nc1ccc3ncccc3c1C2c1ccc(F)c(F)c1` (racemic) [Compound A82, (±)-12-(3,4-difluorophenyl)-9,9-dimethyl-8,9,10,12-tetrahydrobenzo[b][4,7]phenanthroline-11(7H)-thione], for which the IC50 came out at 9.1 µM.

Turning to `CC1(C)CC(=O)C2=C(C1)Nc1ccc3ncccc3c1C2c1ccc([N+](=O)[O-])c(O)c1` (stereo not shown) [Compound A38], the half-inhibitory concentration (IC50) turned out to be 3.3 µM.

On to `CC1(C)CC(=O)C2=C(C1)Nc1ccc3ccccc3c1C2c1cc2ccccc2s1` (racemic) [Compound A95, (±)-12-(benzo[b]thiophen-2-yl)-9,9-dimethyl-8,9,10,12-tetrahydrobenzo[a]acridin-11(7H)-one], for which the concentration for half-maximal inhibition (IC50) is 0.5 µM.

Turning to `CC1CC(=O)C2=C(C1)Nc1ccc3ncccc3c1C2c1ccc([N+](=O)[O-])cc1` (stereo not shown) [Compound A26], the IC50 turned out to be 0.43 µM.

Regarding `CC1(C)CC(=O)C2=C(C1)Nc1ccc3ncccc3c1C2c1cccs1` (stereo not shown) [Compound A66, 9,9-dimethyl-12-(thiophen-2-yl)-8,9,10,12-tetrahydrobenzo[b][4,7]phenanthrolin-11(7H)-one], the IC50 came to 4.1 µM.

For `CC1(C)CC(=O)C2=C(C1)Nc1cc(N3CCCC3)ccc1C2c1cc2ccccc2s1` (racemic) [Compound A94, (±)-9-(benzo[b]thiophen-2-yl)-3,3-dimethyl-6-(pyrrolidin-1-yl)-3,4,9,10-tetrahydroacridin-1(2H)-one], the IC50 is above 10 µM.

For the molecule `CC1(C)CC(=O)C2=C(C1)Nc1ccc3ncccc3c1C2c1cncnc1` (stereo not shown) [Compound A58], the IC50 was above 10 µM.

As for `CN1CC(=O)C2=C(C1)Nc1ccc3ncccc3c1C2c1ccc(F)c(F)c1` (racemic) [Compound A54, (±)-12-(3,4-difluorophenyl)-9-methyl-8,9,10,12-tetrahydropyrido[4,3-b][4,7]phenanthrolin-11(7H)-one], the IC50 was above 10 µM.

As to `CC(C)C1CC(=O)C2=C(C1)Nc1ccc3ncccc3c1C2c1ccc([N+](=O)[O-])cc1` (stereo not shown) [Compound A45], the IC50 stood at 0.3 µM.

Regarding `CC1(C)CC(=O)C2=C(C1)Nc1ccc3ncccc3c1C2c1ccc(B(O)O)c(F)c1` (stereo not shown) [Compound A39], the IC50 amounted to 52 µM.

Take `Cc1ccc2c3c(ccc2n1)NC1=C(C(=O)CC(C)(C)C1)C3c1ccc(F)c(F)c1` (racemic) [Compound A81, (±)-12-(3,4-difluorophenyl)-3,9,9-trimethyl-8,9,10,12-tetrahydrobenzo[b][4,7]phenanthrolin-11(7H)-one]: the IC50 is above 10 µM.

For the molecule `CC1(C)CC(=O)C2=C(C1)Nc1ccc3ncccc3c1C2c1cnccn1` (stereo not shown) [Compound A65], the IC50 is above 10 µM.

For the molecule `CC1(C)CC(=O)C2=C(C1)Nc1cc(N3CCCC3)ccc1C2c1ccc(Br)s1` (racemic) [Compound A98, (±)-9-(5-bromothiophen-2-yl)-3,3-dimethyl-6-(pyrrolidin-1l-yl)-3,4,9,10-tetrahydroacridin-1(2H)-one], the IC50 is above 10 µM.

Consider `CC1(C)CC(=O)C2=C(C1)Nc1ccc3cnccc3c1C2c1ccc([N+](=O)[O-])cc1` (stereo not shown) [Compound A43], for which the IC50 was determined as 9.1 µM.

Consider `CC1(C)CC(=O)C2=C(C1)Nc1ccc3ncccc3c1C2c1ccc(F)cc1` (stereo not shown) [Compound A40], for which the concentration for half-maximal inhibition (IC50) worked out at 1.7 µM.

As for `CC1(C)CC(=O)C2=C(C1)Nc1ccc3nc(C#N)ccc3c1C2c1ccc(F)c(F)c1` (racemic) [Compound A52, (±)-12-(3,4-difluorophenyl)-9,9-dimethyl-11-oxo-7,8,9,10,11,12-hexahydrobenzo[b][4,7]phenanthroline-3-carbonitrile], the IC50 is above 10 µM.

`Cc1ccc(C2C3=C(CC(C)(C)CC3=O)Nc3ccc4nccnc4c32)s1` (racemic) [Compound A104, (±)-9,9-dimethyl-12-(5-methylthiophen-2-yl)-8,9,10,12-tetrahydropyrazino[2,3-a]acridin-11(7H)-one]: the IC50 is 2 µM.

With `Cc1ccc(C2C3=C(CC(C)(C)CC3=O)Nc3cc(N4CCCC4)ccc32)s1` (stereo not shown) [Compound A105], the half-inhibitory concentration (IC50) is above 10 µM.

Regarding `CC1(C)CC(=O)C2=C(C1)Nc1ccc3cn[nH]c3c1C2c1ccc(F)c(F)c1` (stereo not shown) [Compound A77], the IC50 is above 10 µM.

As for `CC1(C)CC(=O)C2=C(C1)Nc1ccc3ncncc3c1C2c1ccc(F)c(F)c1` (racemic) [Compound A86, (±)-12-(3,4-difluorophenyl)-9,9-dimethyl-8,9,10,12-tetrahydropyrimido[5,4-a]acridin-11(7H)-one], the IC50 was determined as 1.8 µM.

For the molecule `CC1(C)CC(=O)C2=C(C1)Nc1ccc3nccnc3c1C2c1ccc(Cl)s1` (racemic) [Compound A99, (±)-12-(5-chlorothiophen-2-yl)-9,9-dimethyl-8,9,10,12-tetrahydropyrazino[2,3-a]acridin-11(7H)-one], the IC50 was 0.6 µM.

As for `CC1(C)CC(=O)C2=C(C1)Nc1ccc3ncccc3c1C2c1ccc(F)c(F)c1` (stereo not shown) [Compound A32], the concentration for half-maximal inhibition (IC50) is 0.4 µM.

With `Cc1ccc(C2C3=C(CC(C)(C)CC3=O)Nc3ccc4ccccc4c32)s1` (stereo not shown) [Compound A106, 9,9-dimethyl-12-(5-methylthiophen-2-yl)-8,9,10,12-tetrahydrobenzo[a]acridin-11(7H)-one], the IC50 amounted to 0.8 µM.

In the case of `CC1(C)CC(=O)C2=C(C1)Nc1ccc3ncccc3c1C2c1ccc(Br)cn1` (stereo not shown) [Compound A33], the IC50 worked out at 3.4 µM.

With `O=C1CCC2=C1C(c1ccc([N+](=O)[O-])cc1)c1c(ccc3ncccc13)N2` (stereo not shown) [Compound A47], the IC50 was determined as 9.9 µM.

`CC1(C)CC(=O)C2=C(C1)Nc1ccc3ncccc3c1C2c1ccc(Br)nc1` (stereo not shown) [Compound A34]: the IC50 came to 1.9 µM.

For `CC1(C)CC(=O)C2=C(C1)Nc1ccc3ncccc3c1C2c1ccc(C(F)(F)F)cc1` (stereo not shown) [Compound A41], the half-inhibitory concentration (IC50) came out at 1.9 µM.

For the molecule `CC1(C)CC(=O)C2=C(C1)Nc1ccc3nc(C(=O)O)ccc3c1C2c1ccc(F)c(F)c1` (racemic) [Compound A80, (±)-12-(3,4-difluorophenyl)-9,9-dimethyl-11-oxo-7,8,9,10,11,12-hexahydrobenzo[b][4,7]phenanthroline-3-carboxylic acid], the IC50 was above 10 µM.

Turning to `CC1(C)CC(=O)C2=C(C1)Nc1ccc3ncccc3c1C2c1ccc(Cl)c(Cl)c1` (stereo not shown) [Compound A31], the IC50 stood at 2.2 µM.

As to `Cc1ccsc1C1C2=C(CC(C)(C)CC2=O)Nc2ccc3nccnc3c21` (stereo not shown) [Compound A115], the half-inhibitory concentration (IC50) was above 10 µM.

On to `Cc1ccc(C2C3=C(CC(C)(C)CC3=O)Nc3ccc4ncccc4c32)nc1` (stereo not shown) [Compound A35], for which the half-inhibitory concentration (IC50) stood at 58 µM.
